The results in this text go back to PubChem BioAssay AID838 (SRMLSC, 2007).

Calls of active or inactive are those of the source. How the calls were made is not given here.

For one test, the target named is Pantothenate synthetase (Mycobacterium tuberculosis (strain ATCC 25618 / H37Rv)) (UniProt P9WIL5). As to the kind of experiment: M. tuberculosis pantothenate synthetase inhibitors, biochemical confirmatory screen (AID 838). The conditions noted are these: M. tuberculosis pantothenate synthetase enzyme inhibition.
Chain of Pantothenate synthetase (Mycobacterium tuberculosis (strain ATCC 25618 / H37Rv)) (P9WIL5 whole entry, looked up): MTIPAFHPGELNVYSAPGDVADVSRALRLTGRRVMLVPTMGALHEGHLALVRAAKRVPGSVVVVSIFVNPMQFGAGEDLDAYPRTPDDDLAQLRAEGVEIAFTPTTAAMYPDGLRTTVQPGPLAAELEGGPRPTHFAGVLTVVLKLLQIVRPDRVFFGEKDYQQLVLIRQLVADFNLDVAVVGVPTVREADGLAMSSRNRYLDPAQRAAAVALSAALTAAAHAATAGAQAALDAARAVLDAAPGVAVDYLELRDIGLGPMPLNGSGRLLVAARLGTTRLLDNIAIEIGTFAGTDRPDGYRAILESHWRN
`CC(C)(C)c1ccc2onc(C(=O)Nc3cnn(Cc4ccc(F)cc4)c3)c2c1`: the IC50 was 0.351 µM. Same read-out and setting: as for `CC(C)(C)c1ccc2onc(C(=O)Nc3cnn(Cc4cccc(F)c4)c3)c2c1`, the figure is 0.64 µM; as for `CC(C)(C)C1CCc2onc(C(=O)Nc3cnn(Cc4ccc(I)cc4)c3)c2C1` (stereo not given), 0.068 µM. On to `CC(C)(C)c1ccc2onc(C(=O)Nc3cnn(Cc4ccc(I)cc4)c3)c2c1`, for which the IC50 is 36.3 µM. The same measure, in the same setting: as for `CC(C)(C)C1CCc2onc(C(=O)Nc3cnn(Cc4cccc(I)c4)c3)c2C1` (stereo not given), the figure is 0.101 µM; as for `CC(C)(C)C1CCc2onc(C(=O)Nc3cnn(Cc4ccc(Cl)cc4Cl)c3)c2C1` (stereo not given), 0.111 µM. Still for that read-out and setting: as for `Cc1ccccc1Cn1cc(NC(=O)c2noc3c2CC(C(C)(C)C)CC3)cn1` (stereo not given), the figure is 0.15 µM; as for `COc1ccc(-c2cc(C(=O)Nc3cnn(Cc4ccccc4C)c3)no2)cc1`, 47.7 µM; as for `CC(C)(C)C1CCc2onc(C(=O)Nc3cnn(Cc4ccc(F)cc4F)c3)c2C1` (stereo not given), 0.128 µM. Take `CC(C)(C)C1CCc2onc(C(=O)Nc3cnn(Cc4ccccc4I)c3)c2C1` (stereo not given): the IC50 was 0.104 µM.

As to `O=C(Nc1cnn(Cc2ccc(F)cc2)c1)c1noc2ccc(-c3ccccc3)cc12`, the IC50 was 108 µM.

Turning to `CC(C)(C)C1CCc2onc(C(=O)Nc3cnn(Cc4ccccc4C(F)(F)F)c3)c2C1` (stereo not given), the IC50 is 0.274 µM.

The test is the same for the next values; noted with them: M. tuberculosis pantothenate synthetase enzyme inhibition; at 100 µM; active compounds read high.
As to `Cc1cc(C(=O)N2CCCC(CN3CCc4ccccc4C3)C2)no1` (stereo not given), the inhibition result was “inactive”. In the case of `O=C(Nc1cnn(Cc2ccc(Cl)cc2Cl)c1)c1noc2c1CCCC2`, the inhibition entry was “inactive”. Same read-out and setting: as for `O=C(Nc1cnn(Cc2ccc(F)cc2)c1)c1noc2ccccc12`, the entry is “inactive”; as for `COc1cc(CN(C)C(=O)c2ccc(N3CCC(O)(c4cccc(C(F)(F)F)c4)CC3)nc2)cc(OC)c1OC`, “inactive”.

With `O=C(Nc1cnn(Cc2ccc(F)cc2)c1)c1noc2c1CCCC2`, the inhibition result is “inactive”. Same read-out and setting: as for `Cc1cc(C(=O)N2CCCC(CN(C)Cc3ccc(Cl)cc3)C2)no1` (stereo not given), the entry is “inactive”. With `Cc1cc(C(=O)N2CCc3[nH]cnc3C2c2ccc(-n3cncn3)cc2)no1` (stereo not given), the inhibition entry is “inactive”. Same read-out and setting: as for `COc1ccccc1-c1cc(C(=O)Nc2cnn(Cc3ccccc3C)c2)no1`, the entry is “inactive”; as for `Cc1noc(C)c1CN1C(=O)COc2cc(C(=O)NCc3ccc(C(F)(F)F)nc3)ccc21`, “inactive”. On to `COc1cc(CN(C)C(=O)c2ccc(N3CCc4ccccc4C3)nc2)cc(OC)c1OC`, for which the inhibition entry is “inactive”.

Turning to `Cc1cc(C(=O)N2CCCN(c3cc(-c4cc(F)ccc4C)ncn3)CC2)no1`, the inhibition result was “inactive”. Same read-out and setting: as for `COc1cccc(C2c3nc[nH]c3CCN2C(=O)c2cc(C)on2)c1` (stereo not given), the entry is “inactive”.

For `O=C(Nc1cnn(Cc2ccc(F)cc2)c1)c1noc2c1CC(c1ccccc1)CC2` (stereo not given), the inhibition entry is “inactive”. Same read-out and setting: as for `Cc1cc(C(=O)N2CCc3[nH]cnc3C2c2ccccc2F)no1` (stereo not given), the entry is “inactive”; as for `Cc1cc(C(=O)N2CCCC(CN3CCN(c4cnccn4)CC3)C2)no1` (stereo not given), “inactive”.

As for `COc1cc(CN(C)C(=O)c2ccc(N3CCC(O)(Cc4ccccc4)CC3)nc2)cc(OC)c1OC`, the inhibition entry is “inactive”.

Take `Cc1ccccc1Cn1cc(NC(=O)c2noc3c2CCCC3)cn1`: the inhibition result is “inactive”.

As to `Cc1cc(C(=O)N2CCCC(CN3CCC(C(F)(F)F)CC3)C2)no1` (stereo not given), the inhibition entry was “inactive”.

Consider `Cc1onc(-c2ccccc2Cl)c1C(=O)Nc1cnn(Cc2ccccc2)c1`, for which the inhibition entry is “inactive”. Take `Cc1ccccc1Cn1cc(NC(=O)c2cc(-c3cccs3)on2)cn1`: the inhibition entry is “inactive”.

As for `Cc1cc(C(=O)N2CCc3[nH]cnc3C2c2ccc(F)cc2)no1` (stereo not given), the inhibition result was “inactive”. As to `Cc1ccccc1Cn1cc(NC(=O)c2cc(-c3ccco3)on2)cn1`, the inhibition entry was “inactive”. The same measure, in the same setting: as for `Cc1cc(C(=O)NCCc2nc(C(=O)NCCN(C)C)cs2)no1`, the entry is “inactive”; as for `CC(C)(C)c1ccc2onc(C(=O)Nc3cnn(Cc4cccc(F)c4)c3Cl)c2c1`, “inactive”. On the same count and under the same terms, as for `CCCc1cc(C(=O)Nc2cnn(Cc3ccc(F)cc3)c2)no1`, the entry is “inactive”; as for `Cc1cc(C(=O)N2CCCN(c3cc(-c4ccc5ccccc5c4)ncn3)CC2)no1`, “inactive”; as for `O=C(Nc1cnn(Cc2ccc(F)cc2)c1)c1cc(C2CC2)on1`, “inactive”.

For the compound `COc1cc(C(=O)Nc2cnn(Cc3cccc(I)c3)c2)cc(OC)c1OC`, the inhibition result was “inactive”.

Consider `COc1cccc(-c2cc(C(=O)Nc3cnn(Cc4ccccc4C)c3)no2)c1`, for which the inhibition entry was “inactive”.

Take `COCCN(CC1CCCN(C(=O)c2cc(C)on2)C1)C(C)C` (stereo not given): the inhibition result was “inactive”.

In the case of `CCCN(CC1CC1)CC1CCCN(C(=O)c2cc(C)on2)C1` (stereo not given), the inhibition entry is “inactive”. With `CCc1ccc(C2c3nc[nH]c3CCN2C(=O)c2cc(C)on2)cc1` (stereo not given), the inhibition result was “inactive”. On the same count and under the same terms, as for `O=C(Cn1nc(C2CC2)cc1C(F)F)Nc1cnn(Cc2c(F)cc(F)c(F)c2F)c1`, the entry is “inactive”; as for `CCOc1ccc(Cn2cc(NC(=O)C(C)(C)n3cc([N+](=O)[O-])cn3)cn2)cc1OCC`, “inactive”; as for `O=C(Nc1cnn(Cc2ccc(Cl)cc2Cl)c1)c1noc2c1CCCCC2`, “inactive”.

In the case of `CCN(Cc1ccncc1)CC1CCCN(C(=O)c2cc(C)on2)C1` (stereo not given), the inhibition result was “inactive”. In the case of `Cc1cccc(CN2C(=O)COc3cc(C(=O)N4CCN(Cc5ccccc5)CC4)ccc32)c1`, the inhibition entry is “inactive”.

For `Cc1ccccc1Cn1cc(NC(=O)c2cc(C3CC3)on2)cn1`, the inhibition entry is “inactive”.

Usually IC50 stands for the midpoint of a concentration-inhibition curve.
